Our source for the Activity and Tm values is ChEMBL document CHEMBL1153812, “Hydrolytic cleavage of DNA by urea-bridged macrocyclic polyamines” (Eur J Med Chem, 2009).

Format in all cases: nucleic-acid assay
For assay [1], the system named is Nucleic Acid. The assay is described as follows: Induction of supercoiled Escherichia coli pUC19 DNA cleavage assessed as formation of open-circular DNA at 71 uM after 36 hrs by agarose gel electrophoresis.
The subject of assay [2] is Nucleic Acid. The assay is described as follows: Binding affinity to calf thymus duplex DNA assessed as thermal melting temperature at 0.11 mM by UV-visible spectrophotometry. Conditions: Bos taurus.
Assay [3] has as its system Nucleic Acid. The assay is described as follows: Induction of supercoiled Escherichia coli pUC19 DNA cleavage assessed as formation of open-circular DNA at 143 uM after 36 hrs by agarose gel electrophoresis.
Assay [4] concerns Nucleic Acid. The assay is described as follows: Induction of supercoiled Escherichia coli pUC19 DNA cleavage assessed as formation of open-circular DNA at 0.285 mM after 36 hrs by TBARS method in presence of hydroxy radical.
Assay [5] deals with Nucleic Acid. The assay is described as follows: Induction of supercoiled Escherichia coli pUC19 DNA cleavage assessed as formation of open-circular DNA at 357 uM after 36 hrs by agarose gel electrophoresis in presence of […].
Assay [6] has as its system Nucleic Acid. The assay is described as follows: Induction of supercoiled Escherichia coli pUC19 DNA cleavage assessed as formation of open-circular DNA at 357 uM after 36 hrs by agarose gel electrophoresis in presence of hydroxyl radical scavenger t-BuOH.
Assay [7] concerns Nucleic Acid. The assay is described as follows: Induction of supercoiled Escherichia coli pUC19 DNA cleavage assessed as formation of open-circular DNA at 357 uM after 36 hrs by agarose gel electrophoresis in presence of singlet oxygen scavenger NaN3.
The subject of assay [8] is Nucleic Acid. The assay is described as follows: Induction of supercoiled Escherichia coli pUC19 DNA cleavage assessed as formation of open-circular DNA at 286 uM by agarose gel electrophoresis. As to conditions: TDE = time-dependent effect.
Assay [9] relates to Nucleic Acid. The assay is described as follows: Induction of supercoiled Escherichia coli pUC19 DNA cleavage assessed as formation of open-circular DNA at 286 uM after 36 hrs by agarose gel electrophoresis.
In assay [10] the test system is Nucleic Acid. The assay is described as follows: Induction of supercoiled Escherichia coli pUC19 DNA cleavage assessed as formation of open-circular DNA at 357 uM after 32 hrs by agarose gel electrophoresis.
For assay [11], the system named is Nucleic Acid. The assay is described as follows: Binding affinity to calf thymus duplex DNA assessed as change in viscosity of DNA at 20 mM by viscometric analysis. Conditions: Bos taurus.
The subject of assay [12] is Nucleic Acid. The assay is described as follows: Induction of supercoiled Escherichia coli pUC19 DNA cleavage assessed as formation of open-circular DNA at 214 uM after 36 hrs by agarose gel electrophoresis.
Assay [13] has as its system Nucleic Acid. The assay is described as follows: Induction of supercoiled Escherichia coli pUC19 DNA cleavage assessed as formation of open-circular DNA at 357 uM after 36 hrs by agarose gel electrophoresis in presence of hydroxyl radical scavenger DMSO.
Assay [14] concerns Nucleic Acid. The assay is described as follows: Induction of supercoiled Escherichia coli pUC19 DNA cleavage assessed as formation of open-circular DNA at 357 uM after 36 hrs by agarose gel electrophoresis.

Activity calls are given as the source filed them. No cut-off for these calls is given here.

By Tm is commonly meant the temperature at the midpoint of the melting transition. With `CC(NC(=O)NC(C)C(=O)N1CCNCCNCCNCC1)C(=O)N1CCNCCNCCNCC1` (stereo not given), the Activity is 29% with Nucleic Acid [1]; 59% in the assay on Nucleic Acid [3]; “tde” in the assay on Nucleic Acid [8]; 89% in the assay on Nucleic Acid [9]; 97% with Nucleic Acid [10]; 72% in the assay on Nucleic Acid [12]. Moreover, in the assay with Nucleic Acid [14], the Activity was determined as 97%. In addition, the Tm in the assay with Nucleic Acid [2] came to 75.7 °C. Further, the outcome with Nucleic Acid [4], in the assay with Nucleic Acid [5], in the assay with Nucleic Acid [6], with Nucleic Acid [7], in the assay on Nucleic Acid [11] and in the assay on Nucleic Acid [13] was Active.

Turning to `COC(=O)C(C)NC(=O)NC(C)C(=O)OC` (stereo not given), the Tm with Nucleic Acid [2] was 76.6 °C. Further, the result in the assay on Nucleic Acid [11] and in the assay with Nucleic Acid [14] was Active.

As for `CCNC(=O)NC(C)C(=O)N1CCNCCNCCNCC1` (stereo not given), the Tm with Nucleic Acid [2] worked out at 77.6 °C. For the same compound, the outcome in the assay with Nucleic Acid [11] and in the assay on Nucleic Acid [14] was Active.
